# Assay results: US9040691B2, “Hydroxymethylaryl-substituted pyrrolotriazines as ALK1 inhibitors” (BAYER INTELLECTUAL PROPERTY GMBH, priority 2011, dated 2015)
# pIC50: −log10 of the molar value.
# Legend:
# [1] = test system: hSmad7 mRNA in BMP9-stimulated HMVEC; assay: Smad7 target gene induction: HMVEC cell assay and TaqMan expression analysis; assay type: cell-based; details: Homo sapiens, hBMP9 stimulation, Smad7 mRNA by TaqMan
# Protocol: B-2a. Smad7 Target Gene Induction: HMVEC Cell Assay and TaqMan Expression Analysis
# Activation of ALK1 receptors by BMP9 induces the Smad1/5 signalling pathway and enhances expression of target genes Smad6, Smad7 and Id-1. Induction of Smad7-mRNA in BMP9-stimulated endothelial cells was determined to monitor the cellular potency of ALK1 kinase inhibitors.
# Human microvascular endothelial cells (IIMVECadult, Cell Systems, St. Katharinen) were seeded in complete ENGS MV medium with all supplements (LifeLine Cell Technology) in 96 well plates with 10 000 cells per well. After 4 h incubation at 37° C. and 7.5% CO2 in a humidified incubator, medium was replaced with minimal medium (ENGS MV without supplements containing 0.02% FCS). After 16 h, test compounds or medium (controls) were added to the cultures, followed 30 min later by addition of hBMP9 (R&D Systems). Medium was removed 1 to 4 h later, plates were gently washed with phosphate-buffered saline, and cells were lysed with 150 μl per well of ice-cold RLT buffer (Qiagen).
# Total cellular RNA was isolated with the Trizol® reagent protocol according to the manufacturer's specifications (Invitrogen, USA) and treated with DNAseI to remove genomic DNA contamination.
# For relative quantitation of the mRNA distribution of hSmad7, total RNA from each sample was first reverse-transcribed using the ImProm-II Reverse Transcription System (Promega, USA) according to the manufacturer's protocol. The final volume was adjusted to 200 μl with water.
# For relative quantitation of selected mRNA, the Applied Bioscience ABI 7900HT Sequence Detection System was used according to the manufacturer's specifications and protocols. PCR reactions were set up to quantitate hSmad7- and the housekeeping gene L32-mRNA. Forward and reverse primers and probes for hSmad7 and L32 were designed using the Applied Bioscience ABI Primer Expressim software and were synthesized by Eurogentec (Belgium). The hSmad7 forward primer sequence was: Primer 1 (SEQ ID NO 1). The hSmad7 reverse primer sequence was: Primer 2 (SEQ ID NO 2). Probe 1 (SEQ ID NO 3), labelled with FAM as the reporter dye and TAMRA as the quencher, was used as a probe for hSmad7. The L32 forward primer sequence was: Primer 3 (SEQ ID NO 4). The L32 reverse primer sequence was: Primer 4 (SEQ ID NO 5). Probe 2 (SEQ ID NO 6), labelled with FAM as the reporter dye and TAMRA as the quencher, was used as a probe for L32.
# The following reagents were prepared in a total of 20 μl added per well: 1× qPCR-MasterMix (Eurogentec, Belgium) and hSmad7 forward and reverse primers each at 200 nM, 200 nM hSmad7 FAM/TAMRA-labelled probe 1 (SEQ ID NO 3), and 5 μl of template cDNA. Correspondingly, a second mix in a total of 20 μl was prepared using L32 FAM/TAMRA-labelled probe 2 (SEQ ID NO 6) and L32 forward and reverse primers added per well in parallel samples.
# Thermal cycling parameters were 2 min at 50° C., followed by 10 min at 95° C., followed by 40 cycles of melting at 95° C. for 15 sec and annealing/extending at 60° C. for 1 min.
# Calculation of Relative Expression:
# The Ct (cycle threshold) values were calculated from the turning point of PCR product quantity curves by the ΔΔCt method (delta-delta Ct): ΔCt=CthSmad7−CtL32; relative expression=2^(15-ΔCt).
# IC50 values of test compounds were calculated on basis of relative Smad7 expressions at different compound concentrations.
# [2] = test system: hSmad7 mRNA in BMP9-stimulated HUVEC; assay: Smad7 target gene induction: HUVEC cell assay and TaqMan expression analysis; assay type: cell-based, human; details: Homo sapiens, 3 h, 1 ng/ml BMP9 for 3 h, Smad7 mRNA by TaqMan
# Protocol: B-2b. Smad7 Target Gene Induction: HUVEC Cell Assay and TaqMan Expression Analysis
# The in vitro potency of ALK1 inhibitors was tested in a cell-based assay. Bone morphogenetic protein 9 (BMP9) induces Smad7 mRNA expression in human vascular endothelial cells (HUVEC) via activation of ALK1.
# 1.5×10^4 passage 2 HUVECs (Lonza, Basel, Switzerland) per well were seeded in a 96-well plate in EBM-2 medium containing EGM-2 additives and growth factors (Lonza, CC-3156 and CC-4176). After 4 h, the medium was changed to EBM-2 with 0.2% fetal calf serum (FCS) and the cells were starved for 20 h in a humidified incubator at 37° C., 5% CO2. Test compounds were added at 11 different concentrations between 0 and 10 000 nM one hour prior to stimulation of the cells for 3 h with recombinant human BMP9 protein at 1 ng/ml (dissolved in 4 mM hydrochloric acid, 0.1% BSA at 10 μg/ml; R&D Systems, Minneapolis, Minn., USA, 3209BP). Medium was removed, and the cells were lysed in 100 μl RLT buffer (Qiagen, Hilden, Germany). RNA was isolated using the Qiagen RNeasy 96 Kit (order-No. 74182) according to manufacturer's instructions and eluted from the columns with 65 μl RNAse-free water. Reverse transcription for quantitative RT-PCR was carried out with the Omniscript Kit (Qiagen, 205113) in RNAse-free 96-well round-bottom plates. Per well, 6.8 μl of a reaction master mix containing 2 μl 10×RT-buffer, 2 μl dNTPs (5 mM each), 1.6 μl random primer N6 (125 μM), 0.25 μl Rnase Out (40 U/μl) and 1 μl Omniscript Reverse Transcriptase were added. After addition of 13.2 μl of the RNA/water mixture, plate contents were mixed, incubated for 1 h at 37° C. and the total volume adjusted to 100 μl in each well by addition of 80 μl RNAse-free water.
# The quantification of human Smad7 mRNA was carried out on a TaqMan using the Eurogentec qPCR Mastermix Plus (RT-QP2X-03-075+; Cologne, Germany) and employing human L32 as housekeeping reference mRNA. Per qPCR reaction, 2.8 μl primer mix, 10 μl master mix, 2.2 μl water and 5 μl cDNA were added. Thermal cycling parameters were 2 min at 50° C., followed by 10 min at 95° C., followed by 40 cycles of melting at 95° C. for 15 sec and annealing/extending at 60° C. for 1 min.
# Smad7 mRNA levels induced by 1 ng/ml BMP9 without the addition of any inhibitor were set at 100% induction, and % inhibition was calculated for each test compound with this value. For each test compound, every value was determined in quadruplicate. The IC50 values were determined using Microsoft Excel. The fitting method used was a weighted, unconstrained ML-fit.
pIC50 [1],Structure (SMILES),pIC50 [2]
7.00,"CCCc1cc(-c2ccc(CO)cc2)c2c(N)ncnn12 [Example 1, [4-(4-Amino-7-propylpyrrolo[2,1-f][1,2,4]triazin-5-yl)phenyl]methanol]",7.03
6.90,"CCCc1cc(-c2cc(F)c(CO)c(F)c2)c2c(N)ncnn12 [Example 2, [4-(4-Amino-7-propylpyrrolo[2,1-f][1,2,4]triazin-5-yl)-2,6-difluorophenyl]methanol]",6.80
6.74,"Nc1ncnn2c(CCCO)cc(-c3ccc(CO)cc3)c12 [Example 3, 3-{4-Amino-5-[4-(hydroxymethyl)phenyl]pyrrolo[2,1-f][1,2,4]triazin-7-yl}propan-1-ol]",6.92
6.82,"Nc1ncnn2c(C(O)C3CC3)cc(-c3cc(F)c(CO)c(F)c3)c12 (centres unmarked) [Example 5, {4-Amino-5-[3,5-difluoro-4-(hydroxymethyl)phenyl]pyrrolo[2,1-f][1,2,4]triazin-7-yl}(cyclopropyl)methanol]",6.54
6.89,"Nc1ncnn2c1c(-c1cc(F)c(CO)c(F)c1)cc2[C@H]1CC[C@H](O)CC1 [Example 7, trans-4-[4-Amino-5-[3,5-difluoro-4-(hydroxymethyl)phenyl]pyrrolo[2,1-f][1,2,4]triazin-7-yl]-cyclohexanol]",6.85
7.05,"Nc1ncnn2c([C@@H]3CCCNC3)cc(-c3cc(F)c(CO)c(F)c3)c12 [Example 11, (4-{4-Amino-7-[(3R)-piperidin-3-yl]pyrrolo[2,1-f][1,2,4]triazin-5-yl}-2,6-difluorophenyl)methanol]",6.74
6.92,"Nc1nc(-c2cc(-c3ccc(CO)cc3)c3c(N)ncnn23)cs1 [Example 17, {4-[4-Amino-7-(2-amino-1,3-thiazol-4-yl)pyrrolo[2,1-f][1,2,4]triazin-5-yl]phenyl}methanol]",6.54
5.36,"Nc1ncnn2c(CN3CCOCC3)cc(-c3cc(F)c(CO)c(F)c3)c12 [Example 20, {4-[4-Amino-7-(morpholin-4-ylmethyl)pyrrolo[2,1-f][1,2,4]triazin-5-yl]-2,6-difluorophenyl}-methanol]",5.23
5.22,"Nc1ncnn2c(CN3CCOCC3)cc(-c3ccc(CO)c(F)c3)c12 [Example 21, {4-[4-Amino-7-(morpholin-4-ylmethyl)pyrrolo[2,1-f][1,2,4]triazin-5-yl]-2-fluorophenyl}methanol]",6.10
6.10,"Nc1ncnn2c(CN3CCOCC3)cc(-c3ccc(CO)c(Cl)c3)c12 [Example 22, {4-[4-Amino-7-(morpholin-4-ylmethyl)pyrrolo[2,1-f][1,2,4]triazin-5-yl]-2-chlorophenyl}methanol]",5.51
